Measurements as given in ChEMBL document CHEMBL4425173, “Synthesis, biological evaluation and molecular modeling studies of psammaplin A and its analogs as potent histone deacetylases inhibitors and cytotoxic agents” (Bioorg Med Chem Lett, 2016).
Activity calls are given as the source filed them. No cut-off for these calls is given here.

Key:
PC-3 = experiment: Cytotoxicity against human PC3 cells assessed as reduction in cell growth inhibition after 96 hrs by MTT assay; type: functional; conditions: PC-3, 96 h
HL-60 = experiment: Cytotoxicity against human HL60 cells assessed as reduction in cell growth inhibition after 72 hrs by trypan blue-staining based hemocytometric analysis; type: functional; conditions: HL-60, 72 h
Histone deacetylase = experiment: Inhibition of HDAC in human HeLa cells using Fluor deLys as substrate assessed as deacetylation of substrate by fluorescence assay; type: cell-based
MCF7 = experiment: Cytotoxicity against human MCF7 cells assessed as reduction in cell growth inhibition after 96 hrs by MTT assay; type: functional; conditions: MCF7, 96 h
A549 = experiment: Cytotoxicity against human A549 cells assessed as reduction in cell growth inhibition after 96 hrs by MTT assay; type: functional; conditions: A549, 96 h
[1] = target: Histone deacetylase (Homo sapiens) (UniProt Q13547+O15379+Q9UBN7+Q92769+Q9UQL6+Q8WUI4+Q9BY41+Q96DB2+P56524+Q9UKV0+Q969S8); experiment: Inhibition of HDAC in human HL60 cells assessed as upregulation of H3 acetylation levels at 2 uM after 18 hrs by SDS-PAGE analysis; type: cell-based

SMILES | IC50 (Histone deacetylase) [µM] | H3 acetylation upregulation (active/not active) [1] | GI50 (PC-3) [µM] | GI50 (HL-60) [µM] | GI50 (MCF7) [µM] | GI50 (A549) [µM]
O=C(NCCSSCCNC(=O)c1cc(-c2ccc(O)cc2)on1)c1cc(-c2ccc(O)cc2)on1 | 3.14 |  | 31.7 | 11.6 |  | 
COc1ccc(-c2cc(C(=O)NCCSSCCNC(=O)c3cc(-c4ccc(OC)cc4)[nH]n3)n[nH]2)cc1 | 2.77 |  | 26.6 | 6.45 |  | 
O=C(NCCSSCCNC(=O)c1cc(-c2ccc(O)c(Br)c2)[nH]n1)c1cc(-c2ccc(O)c(Br)c2)[nH]n1 | 0.68 |  | 17.1 | 6.14 |  | 
O=C(NCCSSCCNC(=O)/C(Cc1ccc(Cl)cc1Cl)=N/O)/C(Cc1ccc(Cl)cc1Cl)=N/O | 0.28 |  | 4.61 | 0.87 | 4.98 | 6.79
CO/N=C(\Cc1ccc(Cl)cc1Cl)C(=O)NCCSSCCNC(=O)/C(Cc1ccc(Cl)cc1Cl)=N/OC | 8.59 |  | > 50 | 8.64 | 16.5 | 47.1
COc1ccc(-c2cc(C(=O)NCCSSCCNC(=O)c3cc(-c4ccc(OC)c(Br)c4)[nH]n3)n[nH]2)cc1Br | 1.86 |  | 16.9 | 5.52 |  | 
O=C(NCCSSCCNC(=O)c1cc(-c2ccc(O)cc2)[nH]n1)c1cc(-c2ccc(O)cc2)[nH]n1 | 1.81 |  | 19.8 | 4.11 |  | 
CO/N=C(\Cc1cccc(Cl)c1)C(=O)NCCSSCCNC(=O)/C(Cc1cccc(Cl)c1)=N/OC | 4.5 |  | 23.1 | 6.55 | 14.3 | 32
COc1ccc(-c2cc(C(=O)NCCSSCCNC(=O)c3cc(-c4ccc(OC)c(Br)c4)on3)no2)cc1Br | 4.65 |  | 39 | 13.3 |  | 
COc1ccc(-c2cc(C(=O)NCCSSCCNC(=O)c3cc(-c4ccc(OC)cc4)on3)no2)cc1 | 8.31 |  | > 50 | 18.3 |  | 

Second part, led by results:

IC50 (Histone deacetylase) [µM] | H3 acetylation upregulation (active/not active) [1] | SMILES | GI50 (PC-3) [µM] | GI50 (HL-60) [µM] | GI50 (MCF7) [µM] | GI50 (A549) [µM]
0.12 |  | O=C(NCCSSCCNC(=O)/C(Cc1ccc(O)cc1)=N/O)/C(Cc1ccc(O)cc1)=N/O | 5.33 | 0.62 | 4.62 | 6.54
3.15 |  | CO/N=C(\Cc1ccc(OC)cc1)C(=O)NCCSSCCNC(=O)/C(Cc1ccc(OC)cc1)=N/OC | 26.8 | 5.18 | 16.4 | 38.3
0.13 | Active | O=C(NCCSSCCNC(=O)/C(Cc1ccc2c(c1)OCO2)=N/O)/C(Cc1ccc2c(c1)OCO2)=N/O | 2.4 | 0.67 | 3.77 | 4.78
0.12 |  | COc1ccc(C/C(=N\O)C(=O)NCCSSCCNC(=O)/C(Cc2ccc(OC)cc2)=N/O)cc1 | 5.5 | 0.78 | 2.68 | 6.85
0.27 |  | O=C(NCCSSCCNC(=O)/C(Cc1cccc(C(F)(F)F)c1)=N/O)/C(Cc1cccc(C(F)(F)F)c1)=N/O | 6.78 | 0.52 | 3.48 | 4.48
0.04 | Active | COc1cc(C/C(=N\O)C(=O)NCCSSCCNC(=O)/C(Cc2ccc(O)c(OC)c2)=N/O)ccc1O | 3.41 | 0.28 | 2.47 | 4.84
0.03 | Active | COc1ccc(C/C(=N\O)C(=O)NCCSSCCNC(=O)/C(Cc2ccc(OC)c(O)c2)=N/O)cc1O | 3.27 | 0.23 | 2.7 | 4.74
0.26 | Active | Cc1ccc(C/C(=N\O)C(=O)NCCSSCCNC(=O)/C(Cc2ccc(C)cc2)=N/O)cc1 | 6.43 | 0.74 | 4.3 | 8.35
7.65 | inactive | CO/N=C(\Cc1ccc(C)cc1)C(=O)NCCSSCCNC(=O)/C(Cc1ccc(C)cc1)=N/OC | > 50 | 11.9 | > 50 | > 50
0.21 |  | CC(C)c1ccc(C/C(=N\O)C(=O)NCCSSCCNC(=O)/C(Cc2ccc(C(C)C)cc2)=N/O)cc1 | 2.67 | 0.5 | 3.91 | 4.61
0.21 |  | O=C(NCCSSCCNC(=O)/C(Cc1cccc(Cl)c1)=N/O)/C(Cc1cccc(Cl)c1)=N/O | 5.19 | 0.57 | 3.51 | 5.42
0.05 | Active | O=C(NCCSSCCNC(=O)/C(Cc1ccc(O)c(Br)c1)=N/O)/C(Cc1ccc(O)c(Br)c1)=N/O [PSAMMAPLIN A] | 3.52 | 0.29 | 2.26 | 4.5
